Experimental data taken from patent US6436963B1 (priority 1998, dated 2002).

Tests used:
Format in all cases: in vivo
[1] = system: Erysiphe graminis; experiment: Powdery Mildew of Wheat (ERYSGT), protectant spray test on wheat seedlings; conditions: wheat (cultivar Monon), sprayed to run off at 100 ppm, inoculated after 24 hours
[2] = system: Leptosphaeria nodorum; experiment: Glume Blotch of Wheat (LEPTNO), protectant spray test on wheat seedlings; conditions: wheat (cultivar Monon), sprayed to run off at 100 ppm, inoculated after 24 hours
[3] = system: Phytophthora infestans; conditions: tomatoes (cultivar Rutgers), sprayed to run off at 100 ppm, inoculated after 24 hours
[4] = system: Puccinia recondita; experiment: Brown Rust (PUCCRT), protectant spray test on wheat seedlings; conditions: wheat (cultivar Monon), sprayed to run off at 100 ppm, inoculated after 24 hours

Row | Structure (SMILES) | ERYSGT control of plant disease [1] | LEPTNO control of plant disease [2] | PHYTIN control of plant disease [3] | PUCCRT control of plant disease [4]
1 | CNC(=O)C(=NOC)c1ccccc1COc1ncc(C(OC(C)=O)c2ccccc2F)cc1Cl (stereo not shown) [Example 82] | ++ (++ = 75-100% control of plant disease) | ++ (++ = 75-100% control of plant disease) | ++ (++ = 75-100% control of plant disease) | ++ (++ = 75-100% control of plant disease)
2 | CNC(=O)C(=NOC)c1ccccc1COc1ncc(C(OC(C)=O)c2ccc3ccccc3c2)cc1Cl (stereo not shown) [Example 83] | ++ (++ = 75-100% control of plant disease) | ++ (++ = 75-100% control of plant disease) | ++ (++ = 75-100% control of plant disease) | ++ (++ = 75-100% control of plant disease)
3 | CNC(=O)C(=NOC)c1ccccc1COc1ncc(C(O)c2cccc(C)c2)cc1Cl (stereo not shown) [Example 84] | ++ (++ = 75-100% control of plant disease) | − (− = 0-24% control of plant disease) | ++ (++ = 75-100% control of plant disease) | ++ (++ = 75-100% control of plant disease)
4 | CNC(=O)C(=NOC)c1ccccc1COc1ncc(C(O)c2cccc(C)c2)cc1Cl (stereo not shown) [Example 85] | ++ (++ = 75-100% control of plant disease) | ++ (++ = 75-100% control of plant disease) | − (− = 0-24% control of plant disease) | ++ (++ = 75-100% control of plant disease)
5 | CNC(=O)C(=NOC)c1ccccc1COc1ncc(C(O)(CO)c2ccccc2)cc1Cl (stereo not shown) [Example 86] | − (− = 0-24% control of plant disease) | − (− = 0-24% control of plant disease) | ++ (++ = 75-100% control of plant disease) | ++ (++ = 75-100% control of plant disease)
6 | CNC(=O)C(=NOC)c1ccccc1COc1ncc(C(O)C2CCCCC2)cc1Cl (stereo not shown) [Example 87] | ++ (++ = 75-100% control of plant disease) | ++ (++ = 75-100% control of plant disease) | ++ (++ = 75-100% control of plant disease) | ++ (++ = 75-100% control of plant disease)
7 | CNC(=O)C(=NOC)c1ccccc1COc1ncc(C(OC(C)=O)c2ccccc2C(F)(F)F)cc1Cl (stereo not shown) [Example 88] | ++ (++ = 75-100% control of plant disease) | ++ (++ = 75-100% control of plant disease) | ++ (++ = 75-100% control of plant disease) | ++ (++ = 75-100% control of plant disease)
8 | CNC(=O)C(=NOC)c1ccccc1COc1ncc(C(C)Oc2ccc(OC)cc2)cc1Cl (stereo not shown) [Example 89] | ++ (++ = 75-100% control of plant disease) | ++ (++ = 75-100% control of plant disease) | ++ (++ = 75-100% control of plant disease) | ++ (++ = 75-100% control of plant disease)
9 | CCC(O)c1cnc(OCc2ccccc2C(=NOC)C(=O)NC)c(Cl)c1 (stereo not shown) [Example 90] | ++ (++ = 75-100% control of plant disease) | + (+ = 25-74% control of plant disease) | ++ (++ = 75-100% control of plant disease) | ++ (++ = 75-100% control of plant disease)
10 | CCC(OC(C)=O)c1cnc(OCc2ccccc2C(=NOC)C(=O)NC)c(Cl)c1 (stereo not shown) [Example 91] | ++ (++ = 75-100% control of plant disease) | ++ (++ = 75-100% control of plant disease) | ++ (++ = 75-100% control of plant disease) | ++ (++ = 75-100% control of plant disease)
11 | CNC(=O)C(=NOC)c1ccccc1COc1ncc(C(OC(C)=O)c2ccc(C)cc2C)cc1Cl (stereo not shown) [Example 92] | ++ (++ = 75-100% control of plant disease) | ++ (++ = 75-100% control of plant disease) | ++ (++ = 75-100% control of plant disease) | ++ (++ = 75-100% control of plant disease)
12 | CNC(=O)C(=NOC)c1ccccc1COc1ncc(C(O)c2cccc(F)c2)cc1Cl (stereo not shown) [Example 93] | ++ (++ = 75-100% control of plant disease) | ++ (++ = 75-100% control of plant disease) | ++ (++ = 75-100% control of plant disease) | ++ (++ = 75-100% control of plant disease)
13 | CNC(=O)C(=NOC)c1ccccc1COc1ncc(C(O)(COS(=O)(=O)c2ccc(C)cc2)c2ccccc2)cc1Cl (stereo not shown) [Example 94] | ++ (++ = 75-100% control of plant disease) | ++ (++ = 75-100% control of plant disease) | ++ (++ = 75-100% control of plant disease) | ++ (++ = 75-100% control of plant disease)
14 | CNC(=O)C(=NOC)c1ccccc1COc1ncc(C(OC(C)=O)c2ccc(OC)cc2)cc1Cl (stereo not shown) [Example 95] | ++ (++ = 75-100% control of plant disease) | ++ (++ = 75-100% control of plant disease) | ++ (++ = 75-100% control of plant disease) | ++ (++ = 75-100% control of plant disease)
15 | CNC(=O)C(=NOC)c1ccccc1COc1ncc(C(OC(C)=O)c2cccc(F)c2)cc1Cl (stereo not shown) [Example 96] | ++ (++ = 75-100% control of plant disease) | ++ (++ = 75-100% control of plant disease) | ++ (++ = 75-100% control of plant disease) | ++ (++ = 75-100% control of plant disease)
16 | CNC(=O)C(=NOC)c1ccccc1COc1ncc(C(C)OCc2ccccc2OC)cc1Cl (stereo not shown) [Example 97] | ++ (++ = 75-100% control of plant disease) | ++ (++ = 75-100% control of plant disease) | − (− = 0-24% control of plant disease) | ++ (++ = 75-100% control of plant disease)
17 | CNC(=O)C(=NOC)c1ccccc1COc1ncc(C(OC(C)=O)c2ccccc2)cc1C (stereo not shown) [Example 98] | ++ (++ = 75-100% control of plant disease) | ++ (++ = 75-100% control of plant disease) | ++ (++ = 75-100% control of plant disease) | ++ (++ = 75-100% control of plant disease)
18 | CNC(=O)C(=NOC)c1ccccc1COc1ncc(C(OC)c2ccccc2F)cc1Cl (stereo not shown) [Example 99] | ++ (++ = 75-100% control of plant disease) | ++ (++ = 75-100% control of plant disease) | − (− = 0-24% control of plant disease) | ++ (++ = 75-100% control of plant disease)
19 | CNC(=O)C(=NOC)c1ccccc1COc1ncc(C(O)c2ccc(Oc3ccccc3)cc2)cc1Cl (stereo not shown) [Example 100] | ++ (++ = 75-100% control of plant disease) | ++ (++ = 75-100% control of plant disease) | ++ (++ = 75-100% control of plant disease) | ++ (++ = 75-100% control of plant disease)
